Assay results as given in US20240368173A1, “TRICYCLIC GPR65 MODULATORS” (PATHIOS THERAPEUTICS LIMITED, priority 2021, published 2024).
Read-outs that look alike come from different tables or passages of the source.

Target: human recombinant GPR65 (Homo sapiens, UniProt Q8IYL9)
Test: Human GPR65 cAMP HTRF antagonist assay
Format: cell-based
How it was run: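 Antagonism measured as suppression of the cAMP rise when pH is dropped to 7.2 (control wells pH 7.9) in 1321N1 cells stably carrying human GPR65. Cells in KRH with 1 mM IBMX and 200 μM EDTA saw compound 30 min, then acid stimulation 30 min; HTRF cAMP detection, normalised, 4-parameter logistic IC50.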

[1] = 1321N1-hrGPR65 cells, cAMP HTRF, assay pH 7.2, read-out: hGPR65 IC50 (Activity of selected compounds according to the invention)

Chain of human recombinant GPR65 (Q8IYL9 whole entry): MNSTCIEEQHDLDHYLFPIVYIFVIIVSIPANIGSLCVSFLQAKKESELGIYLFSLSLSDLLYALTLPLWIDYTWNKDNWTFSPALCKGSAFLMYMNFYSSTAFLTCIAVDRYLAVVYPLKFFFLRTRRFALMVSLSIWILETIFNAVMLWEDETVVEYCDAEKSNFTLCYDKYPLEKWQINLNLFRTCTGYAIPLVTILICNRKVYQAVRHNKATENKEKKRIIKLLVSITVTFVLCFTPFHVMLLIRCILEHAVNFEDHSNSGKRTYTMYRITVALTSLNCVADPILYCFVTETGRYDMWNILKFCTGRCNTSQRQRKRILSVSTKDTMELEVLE

SMILES | IC50 [nM] | IC50 [1] [nM]
O=C(Nc1cc(Cl)c(-c2cnc(OCC(F)(F)F)c(F)c2)cc1F)N1[C@H]2CC[C@@H]1c1n[nH]c(=O)cc1C2 [Compound 328, (6S,9R)-N-(5-Chloro-2-fluoro-4-(5-fluoro-6-(2,2,2-trifluoroethoxy)pyridin-3-yl)phenyl)-3-oxo-3,5,6,7,8,9-hexahydro-2H-6,9-epiminocyclohepta[c]pyridazine-10-carboxamide] | < 500 | 
O=C(Nc1cc(Cl)c(Cl)cc1F)N1C2CCC1c1n[nH]c(=O)cc1C2 (racemic) [Compound 2, (±)-N-(4,5-Dichloro-2-fluorophenyl)-3-oxo-3,5,6,7,8,9-hexahydro-2H-6,9-epiminocyclohepta[c]pyridazine-10-carboxamide] | < 500 | 
O=C(Nc1cc(Cl)c(Cl)cc1F)N1C2CCC1c1ccnnc1C2 (racemic) [Compound 84, (±)-N-(4,5-Dichloro-2-fluorophenyl)-6,7,8,9-tetrahydro-5H-5,8-epiminocyclohepta[c]pyridazine-10-carboxamide] | < 500 | 
O=C(Nc1ccc(OC2CCC2)c(Cl)c1)N1[C@H]2CC[C@@H]1c1ccnc(F)c1C2 [Compound 69, (5R,8S)-N-(3-Chloro-4-cyclobutoxyphenyl)-1-fluoro-6,7,8,9-tetrahydro-5H-5,8-epiminocyclohepta[c]pyridine-10-carboxamide] | < 500 | 
COc1nccc2c1C[C@@H]1CC[C@H]2N1C(=O)Nc1cc(Cl)c(Cl)cc1F [Compound 88, (5R,8S)-N-(4,5-Dichloro-2-fluorophenyl)-1-methoxy-6,7,8,9-tetrahydro-5H-5,8-epiminocyclohepta[c]pyridine-10-carboxamide] |  | 500 to 5000
CN(C(=O)N1C2CCC1c1ccc(=O)n(C)c1C2)c1cc(Cl)c(Cl)cc1F (racemic) [Compound 288, (±)—N-(4,5-Dichloro-2-fluorophenyl)-N,1-dimethyl-2-oxo-2,5,6,7,8,9-hexahydro-1H-5,8-epiminocyclohepta[b]pyridine-10-carboxamide] |  | > 5000
O=C(Nc1cc(Br)c(C(F)(F)F)cc1F)N1[C@H]2CC[C@@H]1c1n[nH]c(=O)cc1C2 [Compound 35, (6S,9R)-N-(5-Bromo-2-fluoro-4-(trifluoromethyl)phenyl)-3-oxo-3,5,6,7,8,9-hexahydro-2H-6,9-epiminocyclohepta[c]pyridazine-10-carboxamide] | < 500 | 
CC(=O)Nc1ccc(-c2cc(F)c(NC(=O)N3[C@H]4CC[C@@H]3c3n[nH]c(=O)cc3C4)cc2Cl)cn1 [Compound 117, (6S,9R)-N-(4-(6-Acetamidopyridin-3-yl)-5-chloro-2-fluorophenyl)-3-oxo-3,5,6,7,8,9-hexahydro-2H-6,9-epiminocyclohepta[c]pyridazine-10-carboxamide] |  | 500 to 5000
Cc1ncc(-c2ccc(NC(=O)N3[C@H]4CC[C@@H]3c3ccnc(F)c3C4)cc2)o1 [Compound 56, (5R,8S)-1-Fluoro-N-(4-(2-methyloxazol-5-yl)phenyl)-6,7,8,9-tetrahydro-5H-5,8-epiminocyclohepta[c]pyridine-10-carboxamide] |  | 500 to 5000
O=C(Nc1ccc(Cl)c(Br)c1)N1[C@H]2CC[C@@H]1c1n[nH]c(=O)cc1C2 [Compound 49, (6S,9R)-N-(3-Bromo-4-chlorophenyl)-3-oxo-3,5,6,7,8,9-hexahydro-2H-6,9-epiminocyclohepta[c]pyridazine-10-carboxamide] | < 500 | 
O=C(Nc1cc(Cl)c(Br)cc1F)N1[C@@H]2CC[C@H]1c1n[nH]c(=O)cc1C2 [Compound 33, (6R,9S)-N-(4-Bromo-5-chloro-2-fluorophenyl)-3-oxo-3,5,6,7,8,9-hexahydro-2H-6,9-epiminocyclohepta[c]pyridazine-10-carboxamide] |  | > 5000
Cn1ccc2c(-c3cc(F)c(NC(=O)N4[C@H]5CC[C@@H]4c4n[nH]c(=O)cc4C5)cc3Cl)ccnc21 [Compound 282, (6S,9R)-N-(5-Chloro-2-fluoro-4-(1-methyl-1H-pyrrolo[2,3-b]pyridin-4-yl)phenyl)-3-oxo-3,5,6,7,8,9-hexahydro-2H-6,9-epiminocyclohepta[c]pyridazine-10-carboxamide] | < 500 | 
Cc1nc2ccc(-c3cc(F)c(NC(=O)N4[C@H]5CC[C@@H]4c4c[nH]c(=O)cc4C5)cc3Cl)cc2o1 [Compound 206, (6S,9R)-N-(5-Chloro-2-fluoro-4-(2-methylbenzo[d]oxazol-6-yl)phenyl)-3-oxo-3,5,6,7,8,9-hexahydro-2H-6,9-epiminocyclohepta[c]pyridine-10-carboxamide] | < 500 | 
COc1cnc(F)c2c1[C@H]1CC[C@@H](C2)N1C(=O)Nc1cc(Cl)c(Cl)cc1F [Compound 96, (5R,8S)-N-(4,5-Dichloro-2-fluorophenyl)-1-fluoro-4-methoxy-6,7,8,9-tetrahydro-5H-5,8-epiminocyclohepta[c]pyridine-10-carboxamide] | < 500 | 
COCc1cncc(-c2cc(F)c(NC(=O)N3[C@H]4CC[C@@H]3c3n[nH]c(=O)cc3C4)cc2Cl)c1 [Compound 280, (6S,9R)-N-(5-Chloro-2-fluoro-4-(5-(methoxymethyl)pyridin-3-yl)phenyl)-3-oxo-3,5,6,7,8,9-hexahydro-2H-6,9-] |  | 500 to 5000
Cn1nnc2ccc(-c3cc(F)c(NC(=O)N4[C@H]5CC[C@@H]4c4n[nH]c(=O)cc4C5)cc3Cl)cc21 [Compound 141, (6S,9R)-N-(5-Chloro-2-fluoro-4-(1-methyl-1H-benzo[d][1,2,3]triazol-6-yl)phenyl)-3-oxo-3,5,6,7,8,9-hexahydro-2H-6,9-epiminocyclohepta[c]pyridazine-10-carboxamide] | < 500 | 
COc1ccc(-c2cc(F)c(NC(=O)N3[C@H]4CC[C@@H]3c3c[nH]c(=O)cc3C4)cc2Cl)cn1 [Compound 184, (6S,9R)-N-(5-Chloro-2-fluoro-4-(6-methoxypyridin-3-yl)phenyl)-3-oxo-3,5,6,7,8,9-hexahydro-2H-6,9-epiminocyclohepta[c]pyridine-10-carboxamide] | < 500 | 
O=C(Nc1ccc(Br)c(C(F)(F)F)c1)N1C2CCC1c1n[nH]c(=O)cc1C2 (racemic) [Compound 10, (±)-N-(4-Bromo-3-(trifluoromethyl)phenyl)-3-oxo-3,5,6,7,8,9-hexahydro-2H-6,9-epiminocyclohepta[c]pyridazine-10-carboxamide] | < 500 | 
O=C(Nc1cc(Cl)c(-c2ccc(OCCN3CCCCC3)nc2)cc1F)N1[C@H]2CC[C@@H]1c1ccnc(F)c1C2 [Compound 220, (5R,8S)-N-(5-Chloro-2-fluoro-4-(6-(2-(piperidin-1-yl)ethoxy)pyridin-3-yl)phenyl)-1-fluoro-6,7,8,9-tetrahydro-5H-5,8-epiminocyclohepta[c]pyridine-10-carboxamide] | < 500 | 
O=C(Nc1cc(Cl)c(C(F)(F)F)cc1F)N1C2CCC1C(F)c1c2ccnc1F (mixture of isomers) [Compound 226, (±, 9-endo)-N-(5-chloro-2-fluoro-4-(trifluoromethyl)phenyl)-1,9-difluoro-6,7,8,9-tetrahydro-5H-5,8-epiminocyclohepta[c]pyridine-10-carboxamide] | < 500 | 
O=C(Nc1cc(Cl)c(C(F)(F)F)cc1F)N1C2CC[C@@H]1c1ccnc(F)c1C2O (mixture of isomers) [Compound 204, (±)—(R)—N-(5-chloro-2-fluoro-4-(trifluoromethyl)phenyl)-1-fluoro-9-hydroxy-6,7,8,9-tetrahydro-5H-5,8-epiminocyclohepta[c]pyridine-10-carboxamide] |  | 500 to 5000
O=C(Nc1cc(Cl)c(OCc2ccccc2)cc1F)N1[C@H]2CC[C@@H]1c1n[nH]c(=O)cc1C2 [Compound 237, (6S,9R)-N-(4-(Benzyloxy)-5-chloro-2-fluorophenyl)-3-oxo-3,5,6,7,8,9-hexahydro-2H-6,9-epiminocyclohepta[c]pyridazine-10-carboxamide] | < 500 | 
O=C(Nc1ccc(Cl)c(Br)c1)N1C2CCC1c1n[nH]c(=O)cc1C2 (racemic) [Compound 5, (±)-N-(3-Bromo-4-chlorophenyl)-3-oxo-3,5,6,7,8,9-hexahydro-2H-6,9-epiminocyclohepta[c]pyridazine-10-carboxamide] | < 500 | 
Cn1nc2c(cc1=O)CC1CCC2N1C(=O)Nc1cc(Cl)c(Cl)cc1F (racemic) [Compound 83, (±)-N-(4,5-Dichloro-2-fluorophenyl)-2-methyl-3-oxo-3,5,6,7,8,9-hexahydro-2H-6,9-epiminocyclohepta[c]pyridazine-10-carboxamide] |  | 500 to 5000
O=C(Nc1cc(F)c(NC(=O)N2[C@H]3CC[C@@H]2c2n[nH]c(=O)cc2C3)cc1Cl)c1ccccc1 [Compound 236, (6S,9R)—N-(4-benzamido-5-chloro-2-fluorophenyl)-3-oxo-3,5,6,7,8,9-hexahydro-2H-6,9-epiminocyclohepta[c]pyridazine-10-carboxamide] | 500 to 5000 | 
N#Cc1cnccc1-c1cc(F)c(NC(=O)N2[C@H]3CC[C@@H]2c2n[nH]c(=O)cc2C3)cc1Cl [Compound 179, (6S,9R)-N-(5-Chloro-4-(3-cyanopyridin-4-yl)-2-fluorophenyl)-3-oxo-3,5,6,7,8,9-hexahydro-2H-6,9-epiminocyclohepta[c]pyridazine-10-carboxamide] |  | 500 to 5000
O=C(Nc1ccc(OC2CCC2)c(Cl)c1)N1C2CCC1c1n[nH]c(=O)cc1C2 (racemic) [Compound 14, (±)-N-(3-Chloro-4-cyclobutoxyphenyl)-3-oxo-3,5,6,7,8,9-hexahydro-2H-6,9-epiminocyclohepta[c]pyridazine-10-carboxamide] |  | 500 to 5000
CC(C)(O)c1ccc(NC(=O)N2[C@H]3CC[C@@H]2c2ccnc(F)c2C3)cc1Cl [Compound 60, (5R,8S)—N-(3-Chloro-4-(2-hydroxypropan-2-yl)phenyl)-1-fluoro-6,7,8,9-tetrahydro-5H-5,8-epiminocyclohepta[c]pyridine-10-carboxamide] | < 500 | 
COc1ccc2c(n1)C[C@@H]1CC[C@H]2N1C(=O)Nc1cc(Cl)c(Cl)cc1F [Compound 54, (5R,8S)-N-(4,5-Dichloro-2-fluorophenyl)-2-methoxy-6,7,8,9-tetrahydro-5H-5,8-epiminocyclohepta[b]pyridine-10-carboxamide] |  | > 5000
